Source: US9833497B2, “Human originated EGF domain proteins and use of the same” (CHENGDU SOURCEBIO LIMITED-LIABILITY COMPANY, priority 2013, dated 2017)

Columns and labels:
Assay type in all cases: cell-based
Citrobacter diversus = assay: MIC against Gram-negative bacteria: Citrobacter diversus
Outline: (§1)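 Growth inhibition by human EGF domain proteins was scored in LB liquid culture seeded at 5×10^5 CFU/mL. Protein was applied as a two-fold dilution series in triplicate, with shaking incubation at 37° C; MIC is the lowest concentration giving no growth.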

Enterobacter cloacae = assay: MIC against Gram-negative bacteria: Enterobacter cloacae
Outline: as §1

Klebsiella pneumonia = assay: MIC against Gram-negative bacteria: Klebsiella pneumonia
Outline: as §1

Aeromonas hydrophila = assay: MIC against Gram-negative bacteria: Aeromonas hydrophila
Outline: as §1

Proteus vulgaris = assay: MIC against Gram-negative bacteria: Proteus vulgaris
Outline: as §1

Serratia marcescens = assay: MIC against Gram-negative bacteria: Serratia marcescens
Outline: as §1

Moraxella catarrhalis = assay: MIC against Gram-negative bacteria: Moraxella catarrhalis
Outline: as §1

E. coli BL21 = assay: MIC against Gram-negative bacteria: E. coli BL21
Outline: as §1

E. coli DH5α = assay: Antibacterial activity: MIC and growth curve against E. coli DH5α in 96-well plate; conditions: minimal inhibitory concentration against E. coli DH5α; 96-well plate, 5×10^5 CFU/mL, 37° C., judged after 8 h
Outline: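 Log-phase bacteria (OD600 ~0.5) resuspended in LB at 5×10^5 CFU/mL, exposed to recombinant protein at 50, 25, 12.5 μg/mL final in triplicate, 37 °C shaking at 175 rpm. OD600 read every 30 min; MIC is lowest concentration showing no growth.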

Pseudomonas aeruginosa = assay: MIC against Gram-negative bacteria: Pseudomonas aeruginosa
Outline: as §1

Proteus mirabilis = assay: MIC against Gram-negative bacteria: Proteus mirabilis
Outline: as §1

[1] = 10 h cultivation at 37° C., 5×10^5 CFU/mL, two-fold serial dilution
[2] = C. diversus, 10 h cultivation at 37° C., 5×10^5 CFU/mL
[3] = E. cloacae, 10 h cultivation at 37° C., 5×10^5 CFU/mL
[4] = K. pneumonia, 10 h cultivation at 37° C., 5×10^5 CFU/mL
[5] = A. hydrophila, 10 h cultivation at 37° C., 5×10^5 CFU/mL
[6] = P. vulgaris, 10 h cultivation at 37° C., 5×10^5 CFU/mL
[7] = S. marcescens, 10 h cultivation at 37° C., 5×10^5 CFU/mL
[8] = M. catarrhalis, 10 h cultivation at 37° C., 5×10^5 CFU/mL
[9] = E. coli BL21, 10 h cultivation at 37° C., 5×10^5 CFU/mL
[10] = P. aeruginosa, 10 h cultivation at 37° C., 5×10^5 CFU/mL
[11] = P. mirabilis, 10 h cultivation at 37° C., 5×10^5 CFU/mL
[12] = Citrobacter diversus, 96-well plate, 5×10^5 CFU/mL, 37° C., 10 h
[13] = Enterobacter cloacae, 96-well plate, 5×10^5 CFU/mL, 37° C., 10 h
[14] = Klebsiella pneumonia, 96-well plate, 5×10^5 CFU/mL, 37° C., 10 h
[15] = Aeromonas hydrophila, 96-well plate, 5×10^5 CFU/mL, 37° C., 10 h
[16] = Proteus vulgaris, 96-well plate, 5×10^5 CFU/mL, 37° C., 10 h
[17] = Serratia marcescens, 96-well plate, 5×10^5 CFU/mL, 37° C., 10 h
[18] = Moraxella catarrhalis, 96-well plate, 5×10^5 CFU/mL, 37° C., 10 h
[19] = E. coli BL21, 96-well plate, 5×10^5 CFU/mL, 37° C., 10 h
[20] = Pseudomonas aeruginosa, 96-well plate, 5×10^5 CFU/mL, 37° C., 10 h
[21] = Proteus mirabilis, 96-well plate, 5×10^5 CFU/mL, 37° C., 10 h
[22] = 96-well plate, 5×10^5 CFU/mL, 37° C., 10 h

PRT1161 (DIDECASHPCKNGATCIDQPGNYFCQCVPPFKVVDGFSCL; listed as Homo sapiens)
MIC C. diversus (Citrobacter diversus; [1]): 50 µg/mL
MIC E. cloacae (Enterobacter cloacae; [1]): 25 µg/mL
MIC K. pneumonia (Klebsiella pneumonia; [1]): 12.5 µg/mL
MIC A. hydrophila (Aeromonas hydrophila; [1]): 25 µg/mL
MIC P. vulgaris (Proteus vulgaris; [1]): 25 µg/mL
MIC S. marcescens (Serratia marcescens; [1]): 50 µg/mL
MIC M. catarrhalis (Moraxella catarrhalis; [1]): 25 µg/mL
MIC E. coli BL21 (E. coli BL21; [1]): 12.5 µg/mL
MIC (E. coli DH5α): 25 µg/mL
MIC P. aeruginosa (Pseudomonas aeruginosa; [1]): 12.5 µg/mL
MIC P. mirabilis (Proteus mirabilis; [1]): 12.5 µg/mL

PRT791 (SQECQCHNGGTCDAATGQCHCSPGYTGERCQ; listed as Homo sapiens)
MIC (μg/mL) C. diversus (Citrobacter diversus; [2]): 25 µg/mL
MIC (μg/mL) E. cloacae (Enterobacter cloacae; [3]): 50 µg/mL
MIC (μg/mL) K. pneumonia (Klebsiella pneumonia; [4]): 12.5 µg/mL
MIC (μg/mL) A. hydrophila (Aeromonas hydrophila; [5]): 12.5 µg/mL
MIC (μg/mL) P. vulgaris (Proteus vulgaris; [6]): 12.5 µg/mL
MIC (μg/mL) S. marcescens (Serratia marcescens; [7]): 12.5 µg/mL
MIC (μg/mL) M. catarrhalis (Moraxella catarrhalis; [8]): 50 µg/mL
MIC (μg/mL) E. coli BL21 (E. coli BL21; [9]): 12.5 µg/mL
MIC (E. coli DH5α): 50 µg/mL
MIC (μg/mL) P. aeruginosa (Pseudomonas aeruginosa; [10]): 50 µg/mL
MIC (μg/mL) P. mirabilis (Proteus mirabilis; [11]): 25 µg/mL

PRT760 (KLDSCALGDHGCEHSCVSSEDSFVCQCFEGYILREDGKTCR; listed as Homo sapiens)
MIC (μg/mL) C. diversus (Citrobacter diversus; [2]): 12.5 µg/mL
MIC (μg/mL) E. cloacae (Enterobacter cloacae; [3]): 12.5 µg/mL
MIC (μg/mL) K. pneumonia (Klebsiella pneumonia; [4]): 50 µg/mL
MIC (μg/mL) A. hydrophila (Aeromonas hydrophila; [5]): 50 µg/mL
MIC (μg/mL) P. vulgaris (Proteus vulgaris; [6]): 50 µg/mL
MIC (μg/mL) S. marcescens (Serratia marcescens; [7]): 12.5 µg/mL
MIC (μg/mL) M. catarrhalis (Moraxella catarrhalis; [8]): 50 µg/mL
MIC (μg/mL) E. coli BL21 (E. coli BL21; [9]): 25 µg/mL
MIC (E. coli DH5α): 50 µg/mL
MIC (μg/mL) P. aeruginosa (Pseudomonas aeruginosa; [10]): 12.5 µg/mL
MIC (μg/mL) P. mirabilis (Proteus mirabilis; [11]): 12.5 µg/mL

PRT1298 (PINTCIQNPCQHGGTCHLSDSHKDGFSCSCPLGFEGQRCE; listed as Homo sapiens)
MIC against C. diversus (Citrobacter diversus; [12]): 50 µg/mL
MIC against E. cloacae (Enterobacter cloacae; [13]): 25 µg/mL
MIC against K. pneumonia (Klebsiella pneumonia; [14]): 50 µg/mL
MIC against A. hydrophila (Aeromonas hydrophila; [15]): 12.5 µg/mL
MIC against P. vulgaris (Proteus vulgaris; [16]): 12.5 µg/mL
MIC against S. marcescens (Serratia marcescens; [17]): 25 µg/mL
MIC against M. catarrhalis (Moraxella catarrhalis; [18]): 12.5 µg/mL
MIC against E. coli BL21 (E. coli BL21; [19]): 50 µg/mL
MIC (E. coli DH5α): 12.5 µg/mL
MIC against P. aeruginosa (Pseudomonas aeruginosa; [20]): 12.5 µg/mL
MIC against P. mirabilis (Proteus mirabilis; [21]): 50 µg/mL

PRT1029 (PANPCEDGSHTCAPAGQARCVHHGGSTFSCACLPGYAGDGHQCT; listed as Homo sapiens)
MIC (Citrobacter diversus; C. diversus, 10 h cultivation at 37° C.): 50 µg/mL
MIC (Enterobacter cloacae; E. cloacae, 10 h cultivation at 37° C.): 50 µg/mL
MIC (Klebsiella pneumonia; K. pneumonia, 10 h cultivation at 37° C.): 12.5 µg/mL
MIC (Aeromonas hydrophila; A. hydrophila, 10 h cultivation at 37° C.): 12.5 µg/mL
MIC (Proteus vulgaris; P. vulgaris, 10 h cultivation at 37° C.): 12.5 µg/mL
MIC (Serratia marcescens; S. marcescens, 10 h cultivation at 37° C.): 50 µg/mL
MIC (Moraxella catarrhalis; M. catarrhalis, 10 h cultivation at 37° C.): 12.5 µg/mL
MIC (E. coli BL21; E. coli BL21, 10 h cultivation at 37° C.): 12.5 µg/mL
MIC (E. coli DH5α): 12.5 µg/mL
MIC (Pseudomonas aeruginosa; P. aeruginosa, 10 h cultivation at 37° C.): 50 µg/mL
MIC (Proteus mirabilis; P. mirabilis, 10 h cultivation at 37° C.): 50 µg/mL

PRT24 (ELDLCYSNPCRNGGACARREGGYTCVCRPRFTGEDCE; listed as Homo sapiens)
MIC (μg/mL) C. diversus (Citrobacter diversus; [12]): 25 µg/mL
MIC (μg/mL) E. cloacae (Enterobacter cloacae; [13]): 12.5 µg/mL
MIC (μg/mL) K. pneumonia (Klebsiella pneumonia; [14]): 25 µg/mL
MIC (μg/mL) A. hydrophila (Aeromonas hydrophila; [15]): 12.5 µg/mL
MIC (μg/mL) P. vulgaris (Proteus vulgaris; [16]): 12.5 µg/mL
MIC (μg/mL) S. marcescens (Serratia marcescens; [17]): 25 µg/mL
MIC (μg/mL) M. catarrhalis (Moraxella catarrhalis; [18]): 12.5 µg/mL
MIC (μg/mL) E. coli BL21 (E. coli BL21; [19]): 25 µg/mL
MIC (E. coli DH5α): 12.5 µg/mL
MIC (μg/mL) P. aeruginosa (Pseudomonas aeruginosa; [20]): 12.5 µg/mL
MIC (μg/mL) P. mirabilis (Proteus mirabilis; [21]): 25 µg/mL

PRT692 (DVDECATGGRCQHGECANTRGGYTCVCPDGFLLDSSRSSCI; listed as Homo sapiens)
MIC C. diversus (Citrobacter diversus; [22]): 50 µg/mL
MIC E. cloacae (Enterobacter cloacae; [22]): 25 µg/mL
MIC K. pneumonia (Klebsiella pneumonia; [22]): 50 µg/mL
MIC A. hydrophila (Aeromonas hydrophila; [22]): 12.5 µg/mL
MIC P. vulgaris (Proteus vulgaris; [22]): 25 µg/mL
MIC S. marcescens (Serratia marcescens; [22]): 50 µg/mL
MIC M. catarrhalis (Moraxella catarrhalis; [22]): 25 µg/mL
MIC E. coli BL21 (E. coli BL21; [22]): 25 µg/mL
MIC (E. coli DH5α): 50 µg/mL
MIC P. aeruginosa (Pseudomonas aeruginosa; [22]): 12.5 µg/mL
MIC P. mirabilis (Proteus mirabilis; [22]): 12.5 µg/mL
